From ChEMBL document CHEMBL1150479, “2-(3-hydroxypropoxy)-1,25-dihydroxyvitamin D3 (ED-71), preventive and therapeutic effects on bone mineral loss in ovariectomized rats” (Bioorg Med Chem Lett, 1993) come the findings set out here.

The source made the active and inactive calls. The rule behind the calls is not given here.

Test [1] has as its system Rattus norvegicus. As to the kind of experiment: In vivo intestinal calcium absorption was determined against ovariectomized rats; Stimulation. Format: functional, organism-based.
The subject of test [2] is Rattus norvegicus. Put plainly: In vivo bone calcium mobilization was determined against ovariectomized rats; Stimulation. Format: functional, organism-based.
Test [3] is filed under the species Rattus norvegicus. Put plainly: In vitro bone resorption against ovariectomized rats; Weak stimulation. Type of test: functional.
For test [4], the target named is T1, Vitamin D-binding protein (Rattus norvegicus) (UniProt P04276).
T1 sequence (whole entry): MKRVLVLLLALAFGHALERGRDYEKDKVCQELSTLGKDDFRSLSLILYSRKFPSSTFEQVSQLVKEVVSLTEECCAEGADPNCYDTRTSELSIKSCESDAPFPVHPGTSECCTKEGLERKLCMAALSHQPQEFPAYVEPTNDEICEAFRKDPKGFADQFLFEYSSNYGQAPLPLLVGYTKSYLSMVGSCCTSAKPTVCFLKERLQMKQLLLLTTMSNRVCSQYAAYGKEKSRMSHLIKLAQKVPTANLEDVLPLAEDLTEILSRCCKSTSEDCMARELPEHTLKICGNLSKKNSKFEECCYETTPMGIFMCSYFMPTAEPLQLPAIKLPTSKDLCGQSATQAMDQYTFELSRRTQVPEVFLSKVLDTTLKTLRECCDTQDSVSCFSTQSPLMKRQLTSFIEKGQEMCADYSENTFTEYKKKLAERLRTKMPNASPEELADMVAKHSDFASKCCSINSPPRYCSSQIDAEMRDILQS
Put plainly: In vitro binding potency against vitamin D binding protein (DBP) in ovariectomized rats.

In test [5] the target is T2, Vitamin D3 receptor (Rattus norvegicus) (UniProt P13053).
T2 sequence (whole entry): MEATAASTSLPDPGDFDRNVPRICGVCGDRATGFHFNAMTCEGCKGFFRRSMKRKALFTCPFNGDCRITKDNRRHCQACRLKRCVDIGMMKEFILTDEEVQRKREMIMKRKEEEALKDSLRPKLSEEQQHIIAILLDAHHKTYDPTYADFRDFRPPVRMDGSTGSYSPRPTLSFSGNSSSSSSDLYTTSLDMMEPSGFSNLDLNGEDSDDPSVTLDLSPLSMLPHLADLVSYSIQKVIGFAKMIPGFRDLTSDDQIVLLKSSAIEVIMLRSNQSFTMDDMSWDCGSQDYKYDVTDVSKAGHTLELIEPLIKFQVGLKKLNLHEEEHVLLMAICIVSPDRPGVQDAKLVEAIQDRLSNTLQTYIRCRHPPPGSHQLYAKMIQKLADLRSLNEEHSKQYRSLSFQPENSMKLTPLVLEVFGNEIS
Put plainly: In vitro binding potency for vitamin D receptor VDR in 8 ovariectomized rats.

The species entered for test [6] is Rattus norvegicus. As to the kind of experiment: In vitro bone resorption against ovariectomized rats; Stimulation. Type of test: functional.
The target of test [7] is T2, Vitamin D3 receptor (Rattus norvegicus).
Description: In vitro binding potency for vitamin D receptor VDR in ovariectomized rats

Turning to `C=C1/C(=C\C=C2/CCC[C@]3(C)C([C@H](C)CCCC(C)(C)O)CC[C@@H]23)C[C@@H](O)[C@@H](OCCCO)[C@@H]1O` (stereo not given in full), in test [1], the Absorption result is “Active”. The Mobilization entry in test [2] was “Active”. Also, in test [3], the Resorption result is “Partially active”. For the same compound, the Binding potency stood at 2.7 in test [4] and 1 in test [5].

As to `C=C1/C(=C\C=C2/CCC[C@]3(C)[C@@H]([C@H](C)CCCC(C)(C)O)CC[C@@H]23)C[C@@H](O)C[C@@H]1O`, the Absorption result in test [1] is “Active”. The Mobilization entry in test [2] is “Active”. Moreover, the Resorption result in test [6] was “Active”. The Binding potency in test [4] and in test [7] was 1 throughout.
